Patent US7081485B2, “Non-volatile dental compositions containing multifunctional acrylate compounds and lacking an oxygen-inhibited layer” (Bisco, Inc., priority 2002, dated 2006)

Experiment: Initiator absorptivity, 400–500 nm in acetonitrile
Assay type: physicochemical
Conditions: normalized by mass
Protocol: The absorptivity is the absorbance in the range of 400–500 nm in acetonitrile normalized by mass. The higher the value, the higher the absorption in the visible light range. The first three initiators undergo unimolecular bond cleavage upon irradiation. The last three initiators require a co-initiator, such as an amine, to undergo a bimolecular reaction. The initiators (and EDMAB amine if required) were added to the resin. Samples were coated on a white mixing pad, evaporated for greater than 60 seconds, and irradiated at 500 mW/cm^2 using a Bisco VIP light curing system. Samples were irradiated for 5 seconds, 10 seconds, 30 seconds, and 10 seconds in the absence of air. The “no air” cure was performed between two Mylar slips, each 0.25 mm thick. The actual concentration of initiator in the resin was double that shown in the table due to the evaporation of the acetone.

Row | SMILES | Absorbance × 10^−3
1 | O=C1C(=O)c2ccccc2-c2ccccc21 [PAQ, phenanthrenequinone] | 466 × 10^−3
2 | Cc1cc(C)c(C(=O)P(=O)(c2ccccc2)c2ccccc2)c(C)c1 [TPO, 2,4,6-trimethylbenzoyl-diphenylphosphinate] | 6 × 10^−3
3 | CC12CCC(C(=O)C1=O)C2(C)C (stereo not drawn) [CQ, camphorquinone] | 11 × 10^−3
4 | Cc1cc(C)c(C(=O)P(=O)(C(=O)c2c(C)cc(C)cc2C)c2ccccc2)c(C)c1 [Composition 819, bis(2,4,6-trimethylbenzoyl)-phenylphosphineoxide] | 23 × 10^−3
5 | CCOP(=O)(C(=O)c1c(C)cc(C)cc1C)c1ccccc1 (stereo not drawn) [TPOL, ethyl-2,4,6-trimethylbenzoyl-phenylphosphinate] | 4 × 10^−3
6 | CCCCOc1ccc2cc3cc(I)c(=O)c(I)c-3oc2c1 [HNu, 5,7-diiodo-3-butoxy-6-fluorone] | 2960 × 10^−3
